Entries after “also recorded” stand apart in the source; their conditions may differ.
Experiments:
female AR-97Q mice = assay: Administration of testosterone to female AR-97Q mice: symptoms (body weight, rotarod task, cage activity, survival rate, body size, foot prints); type: in vivo, mouse
Protocol: We analyzed rotarod task of mice by an Economex Rotarod (Colombus Instruments, USA) weekly during the light phase of the 12 h light/12 h dark cycle as described previously (Adachi et al., 2001). We performed three trials, and recorded the longest duration on the rod for every mouse. We stopped the timer when the mouse fell from the rod or after an arbitrary limit of 180 seconds.
We measured cage activity while each mouse was in a transparent acrylic cage (16×30×14 cm). We used an AB system (Neuroscience, Japan) with an infrared ray sensor monitor to measure spontaneous motor activity. We automatically totaled and recorded all measurements for 24 hours per week at 10-min intervals.
Male AR-97Q mice and their normal littermates were castrated or sham-operated via the abdominal route under ketamine-xylazine anesthesia (50 mg/kg ketamine and 10 mg/kg xylazine, i.p.) at 4 weeks of age. […] The control mice were given the same amount of sesame oil.

[1] = Serum testosterone radioimmunoassay in testosterone-administered female AR-97Q mice; type: in vivo, mouse; conditions: testosterone-administered female 97Q mice, control mice undetectable low level
male AR-97Q mice = assay: Administration of Leuprorelin to male AR-97Q mice: symptoms (body weight, rotarod task, cage activity, survival rate, body size, foot prints); type: in vivo, mouse
Protocol: We analyzed rotarod task of mice by an Economex Rotarod (Colombus Instruments, USA) weekly during the light phase of the 12 h light/12 h dark cycle as described previously (Adachi et al., 2001). We performed three trials, and recorded the longest duration on the rod for every mouse. We stopped the timer when the mouse fell from the rod or after an arbitrary limit of 180 seconds. We measured cage activity while each mouse was in a transparent acrylic cage (16×30×14 cm). We used an AB system (Neuroscience, Japan) with an infrared ray sensor monitor to measure spontaneous motor activity. We automatically totaled and recorded all measurements for 24 hours per week at 10-min intervals. […] Leuprorelin was administrated as follows. 100 μg of Leuprorelin acetate was suspended in a solution containing D-mannitol, which was subcutaneously injected to the mice every two weeks from five weeks of age until the end of the analysis. To the control group, only suspension was administrated. […] That is to say, motor impairment assessed by rotarod and cage activity was far milder in the Leuprorelin-administrated male AR-97Q mice as compared with the control group, and motor dysfunction was hardly shown in the Leuprorelin-administrated group (FIGS. 5A, B, C and D).

[2] = Serum testosterone radioimmunoassay in Leuprorelin-administered male AR-97Q mice; type: in vivo, mouse; conditions: #4-6, n=4
Protocol: Leuprorelin was administrated as follows. 100 μg of Leuprorelin acetate was suspended in a solution containing D-mannitol, which was subcutaneously injected to the mice every two weeks from five weeks of age until the end of the analysis. To the control group, only suspension was administrated. […] That is to say, motor impairment assessed by rotarod and cage activity was far milder in the Leuprorelin-administrated male AR-97Q mice as compared with the control group, and motor dysfunction was hardly shown in the Leuprorelin-administrated group (FIGS. 5A, B, C and D).

[3] = The Leuproride Study Group 1984; cited from earlier work

SMILES: CCCCCCC(=O)O[C@H]1CC[C@H]2[C@@H]3CCC4=CC(=O)CC[C@]4(C)[C@H]3CC[C@]12C [testosterone, testosterone enanthate]
- body weight (female AR-97Q mice; FIG. 6A, #7-8, testosterone-administered group vs testosterone-administered normal mice or control (oil) group, p<0.0001): significant difference
- rotarod task (female AR-97Q mice; FIG. 6B, #7-8, testosterone-administered group vs testosterone-administered normal mice or control (oil) group, p<0.0001): significant difference
- cage activity (female AR-97Q mice; FIG. 6C, #2-6, testosterone-administered group vs testosterone-administered normal mice or control (oil) group, p<0.0001): significant difference
- survival rate (female AR-97Q mice; FIG. 6D, #7-8, testosterone-administered group vs testosterone-administered normal mice or control (oil) group, p<0.0001): significant difference
- symptoms, pathologic findings and nuclear localization of the mutant protein (female AR-97Q mice; female AR-97Q mice, 20 μg testosterone enanthate s.c. weekly from 4 weeks of age, vs sesame-oil control group): drastically exacerbated
- weight loss (female AR-97Q mice; female AR-97Q mice, FIG. 6A, control group hardly showed weight loss): significant weight loss
- life-span (female AR-97Q mice; female AR-97Q mice, FIG. 6D): affected
- muscle atrophy and body size (female AR-97Q mice; female AR-97Q mice, FIG. 6E, #2-6, 14-week-old): marked muscle atrophy and reduction in body size; also recorded: severe muscular atrophy
- foot print analysis (female AR-97Q mice; female AR-97Q mice, FIG. 6F, not detected in sesame oil-administered mice): exhibited motor weakness and dragged their hind legs
- motor impairment assessed by rotarod and cage activity (female AR-97Q mice; female AR-97Q mice, compared with control mice, FIGS. 6B and C): significantly worsened
- serum testosterone levels ([1]; line #2-6, n=3): 158.0 ± 70.7 ng/dL
- serum testosterone levels ([1]; line #7-8, n=4): 305.3 ± 182.3 ng/dL

SMILES: CCNC(=O)[C@@H]1CCCN1C(=O)[C@H](CCCNC(=N)N)NC(=O)[C@H](CC(C)C)NC(=O)[C@@H](CC(C)C)NC(=O)[C@H](Cc1ccc(O)cc1)NC(=O)[C@H](CO)NC(=O)[C@H](Cc1c[nH]c2ccccc12)NC(=O)[C@H](Cc1c[nH]cn1)NC(=O)[C@@H]1CCC(=O)N1 [Leuprorelin]
- rotarod task (male AR-97Q mice; FIG. 5B, #7-8, Leuprorelin-administered group vs control (vehicle) group, n=6): significant difference
- cage activity (male AR-97Q mice; FIG. 5C, #7-8, Leuprorelin-administered group vs control (vehicle) group, n=6): significant difference
- body size (male AR-97Q mice; FIG. 5E, #4-6, 12-week-old, control group showed severe muscular atrophy): normal
- symptoms (male AR-97Q mice; male AR-97Q mice, 100 μg Leuprorelin acetate s.c. every two weeks from five weeks of age, vs control group (suspension only)): remarkable improvement
- motor dysfunction (male AR-97Q mice; male AR-97Q mice, 100 μg s.c. every two weeks): hardly shown
- motor impairment assessed by rotarod and cage activity (male AR-97Q mice; male AR-97Q mice, 100 μg s.c. every two weeks, compared with the control group): far milder
- reduction in body size (male AR-97Q mice; male AR-97Q mice, FIG. 5E, #4-6, 12-week-old): remarkably improved
- motor weakness (foot prints) (male AR-97Q mice; male AR-97Q mice, FIG. 5F, #4-6, 12-week-old): improved
- serum testosterone value [2]: undetectable low level
- effect of inhibiting the secretion of testosterone, relative to castration [3]: same level
